Here are results for 11 molecules from PubChem BioAssay AID270 (DTP/NCI, 2004).

The assay has as its system BDF1 mice, s.c. Lewis lung carcinoma, T/C %. As to the kind of experiment: NCI In Vivo Anticancer Drug Screen. Data for tumor model Lewis Lung Carcinoma (subcutaneous) in B6D2F1 (BDF1) mice. Here is the method: The antitumor activity of compounds was measured in mice bearing transplantable tumors. Survival or tumor size were measured and the results are expressed as the measurement made in the treated group (T) divided by the measurement made in the vehicle treated control group (C). The tumor model used in this assay is Lewis Lung Carcinoma (subcutaneous) in B6D2F1 (BDF1) mice

The mark [1] stands for this setting: endpoint: mean tumor weight, dose: 6.25 mg/kg/injection, schedule: Q01DX011 (ip), vehicle: saline, higher = larger tumour.
[2] abbreviates: endpoint: mean tumor weight, dose: 25.0 mg/kg/injection, schedule: Q01DX011 (ip), vehicle: saline, higher = larger tumour.
Setting [3] is: endpoint: mean tumor weight, dose: 50.0 mg/kg/injection, schedule: Q01DX011 (ip), vehicle: saline, higher = larger tumour.

Several values for one entry are separate records, joined by “and”; a condition that tells them apart may be missing. Identical values can stand only once. Records with an inconclusive call do not appear.

As to `CC[C@]1(O)C[C@H]2CN(CCc3c([nH]c4ccccc34)[C@@](C(=O)OC)(c3cc4c(cc3OC)N(C=O)[C@H]3[C@@](O)(C(=O)OC)[C@H](OC(C)=O)[C@]5(CC)C=CCN6CC[C@]43[C@@H]65)C2)C1`, the T/C (endpoint: mean survival time, dose: 0.5 mg/kg/injection, schedule: Q08DX002 (ip), vehicle: saline, higher = longer survival) was 101 % of control; the T/C (endpoint: mean survival time, dose: 1.0 mg/kg/injection, schedule: Q08DX002 (ip), vehicle: saline, higher = longer survival) is 104 % of control; the T/C (endpoint: mean survival time, dose: 1.5 mg/kg/injection, schedule: Q08DX002 (ip), vehicle: saline, higher = longer survival) is 106 % of control; the T/C (endpoint: mean tumor weight, dose: 0.05 mg/kg/injection, schedule: Q01DX011 (ip), vehicle: saline, higher = larger tumour) was 81 % of control; the T/C (endpoint: mean tumor weight, dose: 0.1 mg/kg/injection, schedule: Q01DX011 (ip), vehicle: saline, higher = larger tumour) was 83 % of control; the T/C (endpoint: mean tumor weight, dose: 0.15 mg/kg/injection, schedule: Q01DX011 (ip), vehicle: saline, higher = larger tumour) was 87 % of control and 101 % of control. Moreover, the T/C runs as follows: (endpoint: mean tumor weight, dose: 0.22 mg/kg/injection, schedule: Q01DX011 (ip), vehicle: saline, higher = larger tumour) 88 % of control; (endpoint: mean tumor weight, dose: 0.5 mg/kg/injection, schedule: Q01DX011 (ip), vehicle: saline, higher = larger tumour) 59 % of control; (endpoint: mean tumor weight, dose: 62.5 micrograms/kg/injection, schedule: Q01DX011 (ip), vehicle: saline, higher = larger tumour) 59 % of control; (endpoint: mean tumor weight, dose: 125.0 micrograms/kg/injection, schedule: Q01DX011 (ip), vehicle: saline, higher = larger tumour) 80 % of control; (endpoint: mean tumor weight, dose: 250.0 micrograms/kg/injection, schedule: Q01DX011 (ip), vehicle: saline, higher = larger tumour) 59 % of control; (endpoint: median survival time, dose: 0.12 mg/kg/injection, schedule: Q01DX009 (ip), vehicle: saline, higher = longer survival) 116 % of control. Moreover, the T/C runs as follows: (endpoint: median survival time, dose: 0.12 mg/kg/injection, schedule: Q04DX003 (ip), vehicle: saline, higher = longer survival) 104 % of control; (endpoint: median survival time, dose: 0.13 mg/kg/injection, schedule: Q01DX009 (ip), vehicle: saline, higher = longer survival) 100 % of control; (endpoint: median survival time, dose: 0.25 mg/kg/injection, schedule: Q01DX009 (ip), vehicle: saline, higher = longer survival) 108 % of control; (endpoint: median survival time, dose: 0.25 mg/kg/injection, schedule: Q04DX003 (ip), vehicle: saline, higher = longer survival) 108 % of control; (endpoint: median survival time, dose: 0.5 mg/kg/injection, schedule: Q01DX009 (ip), vehicle: saline, higher = longer survival) 108 % of control; (endpoint: median survival time, dose: 0.5 mg/kg/injection, schedule: Q04DX003 (ip), vehicle: saline, higher = longer survival) 88 % of control. In addition, the T/C is 104 % of control (endpoint: median survival time, dose: 0.5 mg/kg/injection, schedule: Q08DX002 (ip), vehicle: saline, higher = longer survival); 93 % of control (endpoint: median survival time, dose: 1.0 mg/kg/injection, schedule: Q04DX003 (ip), vehicle: saline, higher = longer survival); 104 % of control (endpoint: median survival time, dose: 1.0 mg/kg/injection, schedule: Q08DX002 (ip), vehicle: saline, higher = longer survival); 108 % of control (endpoint: median survival time, dose: 1.5 mg/kg/injection, schedule: Q08DX002 (ip), vehicle: saline, higher = longer survival); 53 % of control (endpoint: median survival time, dose: 2.0 mg/kg/injection, schedule: Q04DX003 (ip), vehicle: saline, higher = longer survival); 88 % of control and 118 % of control (endpoint: median survival time, dose: 125.0 micrograms/kg/injection, schedule: Q01DX009 (ip), vehicle: saline, higher = longer survival). Moreover, the T/C reads like this: (endpoint: median survival time, dose: 250.0 micrograms/kg/injection, schedule: Q01DX009 (ip), vehicle: saline, higher = longer survival) 93 % of control; (endpoint: median survival time, dose: 500.0 micrograms/kg/injection, schedule: Q01DX009 (ip), vehicle: saline, higher = longer survival) 97 % of control; (endpoint: median tumor weight (est.), dose: 0.12 mg/kg/injection, schedule: Q01DX011 (ip), vehicle: saline, higher = larger tumour) 102 % of control; (endpoint: median tumor weight (est.), dose: 0.18 mg/kg/injection, schedule: Q01DX011 (ip), vehicle: saline, higher = larger tumour) 46 % of control; (endpoint: median tumor weight (est.), dose: 125.0 micrograms/kg/injection, schedule: Q01DX009 (ip), vehicle: saline, higher = larger tumour) 92 % of control; (endpoint: median tumor weight (est.), dose: 250.0 micrograms/kg/injection, schedule: Q01DX009 (ip), vehicle: saline, higher = larger tumour) 93 % of control. The T/C (endpoint: median tumor weight (est.), dose: 500.0 micrograms/kg/injection, schedule: Q01DX009 (ip), vehicle: saline, higher = larger tumour) is 43 % of control.
As for `Nc1cc(Cl)cc(Cl)c1`, the T/C was 90 % of control (endpoint: mean tumor weight, dose: 29.0 mg/kg/injection, schedule: Q01DX011 (ip), vehicle: other, higher = larger tumour); 65 % of control (endpoint: mean tumor weight, dose: 44.0 mg/kg/injection, schedule: Q01DX011 (ip), vehicle: other, higher = larger tumour); 98 % of control (endpoint: mean tumor weight, dose: 66.0 mg/kg/injection, schedule: Q01DX011 (ip), vehicle: other, higher = larger tumour).
Take `OCC1OC(Oc2ccc(O)cc2)C(O)C(O)C1O` (centres undefined): the T/C by setting is: (endpoint: median survival time, dose: 50.0 mg/kg/injection, schedule: Q01DX009 (ip), vehicle: saline, higher = longer survival) 95 % of control; (endpoint: median survival time, dose: 100.0 mg/kg/injection, schedule: Q01DX009 (ip), vehicle: saline, higher = longer survival) 106 % of control; (endpoint: median survival time, dose: 200.0 mg/kg/injection, schedule: Q01DX009 (ip), vehicle: saline, higher = longer survival) 92 % of control; (endpoint: median survival time, dose: 400.0 mg/kg/injection, schedule: Q01DX009 (ip), vehicle: saline, higher = longer survival) 106 % of control.
With `CCCCC[C@H](O)/C=C/[C@H]1[C@H](O)CC(=O)[C@@H]1C/C=C\CCCC(=O)O`, the T/C (endpoint: median survival time, dose: 50.0 mg/kg/injection, schedule: Q04DX002 (ip), vehicle: saline with Tween-80, higher = longer survival) was 95 % of control.
`CC1CN1c1nc(N2CC2C)nc(N2CC2C)n1` (centres undefined): the T/C by setting is: (endpoint: median survival time, dose: 1.0 mg/kg/injection, schedule: Q01DX009 (ip), vehicle: saline, higher = longer survival) 106 % of control; (endpoint: median survival time, dose: 2.0 mg/kg/injection, schedule: Q01DX009 (ip), vehicle: saline, higher = longer survival) 86 % of control; (endpoint: median survival time, dose: 4.0 mg/kg/injection, schedule: Q01DX009 (ip), vehicle: saline, higher = longer survival) 105 % of control; (endpoint: median survival time, dose: 8.0 mg/kg/injection, schedule: Q01DX009 (ip), vehicle: saline, higher = longer survival) 105 % of control.
Turning to `NC(=S)N/N=C/c1ncccc1O`, the T/C is 99 % of control under setting [1]; 86 % of control (endpoint: mean tumor weight, dose: 12.5 mg/kg/injection, schedule: Q01DX011 (ip), vehicle: saline, higher = larger tumour); 61 % of control under setting [2]; 31 % of control under setting [3]; 1 % of control (endpoint: mean tumor weight, dose: 100.0 mg/kg/injection, schedule: Q01DX011 (ip), vehicle: saline, higher = larger tumour).
On to `Cc1cccc(NC(=O)N(CCCl)N=O)c1`, for which the T/C runs as follows: (endpoint: median survival time, dose: 0.38 mg/kg/injection, schedule: Q01DX009 (ip), vehicle: saline with Tween-80, higher = longer survival) 96 % of control; (endpoint: median survival time, dose: 0.75 mg/kg/injection, schedule: Q01DX009 (ip), vehicle: saline with Tween-80, higher = longer survival) 102 % of control; (endpoint: median survival time, dose: 3.0 mg/kg/injection, schedule: Q01DX009 (ip), vehicle: saline with Tween-80, higher = longer survival) 92 % of control.
On to `C1CCNC1`, for which the T/C was 65 % of control (endpoint: mean tumor weight, dose: 1.56 mg/kg/injection, schedule: Q01DX011 (ip), vehicle: saline, higher = larger tumour); 87 % of control (endpoint: mean tumor weight, dose: 3.13 mg/kg/injection, schedule: Q01DX011 (ip), vehicle: saline, higher = larger tumour); 117 % of control under setting [1]; 73 % of control under setting [2]; 67 % of control under setting [3].
For `COc1ccc(-c2cc(=O)c3c(O)cc(OC)cc3o2)cc1`, the T/C is 84 % of control (endpoint: mean tumor weight, dose: 220.0 mg/kg/injection, schedule: Q01DX011 (ip), vehicle: saline, higher = larger tumour); 71 % of control and 89 % of control (endpoint: mean tumor weight, dose: 330.0 mg/kg/injection, schedule: Q01DX011 (ip), vehicle: saline, higher = larger tumour); 48 % of control and 60 % of control (endpoint: mean tumor weight, dose: 500.0 mg/kg/injection, schedule: Q01DX011 (ip), vehicle: saline, higher = larger tumour).
For `CC(C)NCC(O)COc1cccc2ccccc12` (centres undefined), the T/C (endpoint: median survival time, dose: 2.0 mg/kg/injection, schedule: Q01DX009 (ip), vehicle: Klucel (hydroxypropylcellulose) (HPC), higher = longer survival) was 95 % of control and 110 % of control; the T/C (endpoint: median survival time, dose: 2.0 mg/kg/injection, schedule: Q02DX009 (ip), vehicle: Klucel (hydroxypropylcellulose) (HPC), higher = longer survival) was 123 % of control; the T/C (endpoint: median survival time, dose: 4.0 mg/kg/injection, schedule: Q02DX009 (ip), vehicle: Klucel (hydroxypropylcellulose) (HPC), higher = longer survival) is 95 % of control and 107 % of control; the T/C (endpoint: median survival time, dose: 8.0 mg/kg/injection, schedule: Q02DX009 (ip), vehicle: Klucel (hydroxypropylcellulose) (HPC), higher = longer survival) was 100 % of control and 108 % of control; the T/C (endpoint: median survival time, dose: 16.0 mg/kg/injection, schedule: Q02DX009 (ip), vehicle: Klucel (hydroxypropylcellulose) (HPC), higher = longer survival) was 92 % of control and 111 % of control; the T/C (endpoint: median survival time, dose: 32.0 mg/kg/injection, schedule: Q02DX009 (ip), vehicle: Klucel (hydroxypropylcellulose) (HPC), higher = longer survival) is 90 % of control and 105 % of control. Further, for the setting “endpoint: median survival time, dose: 64.0 mg/kg/injection, schedule: Q02DX009 (ip), vehicle: Klucel (hydroxypropylcellulose) (HPC), higher = longer survival”, the T/C is 101 % of control and 118 % of control.
`COc1cc(OC)c(OC)cc1/C=C/c1cc[n+](C)c2ccccc12`: the T/C is 97 % of control (endpoint: median survival time, dose: 6.25 mg/kg/injection, schedule: Q01DX009 (ip), vehicle: saline, higher = longer survival); 97 % of control (endpoint: median survival time, dose: 12.5 mg/kg/injection, schedule: Q01DX009 (ip), vehicle: saline, higher = longer survival); 111 % of control (endpoint: median survival time, dose: 25.0 mg/kg/injection, schedule: Q01DX009 (ip), vehicle: saline, higher = longer survival).
